# Values quoted from earlier work as cited in US20180185286A1, “POROUS MATERIALS CONTAINING COMPOUNDS INCLUDING […] ACTIVE SPECIES” (NOVARTIS PHARMA AG, priority 2014, published 2018).
# Conditions: in the absence of being incorporated within a porous material
row,aqueous solubility,Structure (SMILES)
1,38 µg/mL,O=C(O)c1ccc(-n2nc(-c3ccccc3O)nc2-c2ccccc2O)cc1 [deferasirox]
2,19 µg/mL,CCOC(=O)C1=C(C)NC(C)=C(C(=O)OC)C1c1cccc(Cl)c1Cl (centres unmarked) [felodipine]
3,38 µg/mL,CC(C)Cc1ccc(C(C)C(=O)O)cc1 (centres unmarked) [ibuprofen]
4,2.5 µg/mL,COc1ccc2c(c1)c(CC(=O)O)c(C)n2C(=O)c1ccc(Cl)cc1 [indomethacin]

row,Structure (SMILES),aqueous solubility
1,O=C1[C@H](CC[C@H](O)c2ccc(F)cc2)[C@@H](c2ccc(O)cc2)N1c1ccc(F)cc1 [ezetimibe],essentially insoluble in aqueous solutions
